The text below walks through data of patent US5348956A, “Substituted cyclopropylamino-1,3,5-triazines” (UCB S.A., priority 1991, dated 1994).

Data set [1] deals with amnesia induced by scopolamine. The data set is described as follows: multiple-trial passive avoidance: mnemic retention, amnesia induced by scopolamine.
Experimental: To this end, the method of multiple-trial passive avoidance has been used. […] The test is carried out on male Sprague-Dawley rats (160-200 g). which are kept in standard cages throughout the experiment. The apparatus used is a transparent square cage with 35 cm sides and 25 cm high, fitted with a grid floor which can be electrified. A rubber insulating mat (10×17 cm) is placed on the floor in one of the corners of the cage.
Each animal is subjected to four tests at times 0, 4, 24 and 28 hours. In the first test (time 0), the animal is placed on the rubber mat and the time which it takes to decide to leave this position to explore the cage is recorded. After 20 seconds of exploration, the rat receives an electric shock (3 seconds duration) in the paws, causing an escape reaction. The rat is immediately removed from the apparatus and replaced in its original cage. In the course of the three subsequent tests (times: 4, 24 and 28 hours), the animal is replaced on the rubber mat and the time taken to leave this position is recorded. As soon as the four paws of the animal rest on the grid, it receives an electric shock and is removed immediately from the apparatus.
At the start of the experiment, the rats are divided into 4 homogeneous groups of 15 animals. Thirty minutes before each test, each group of animals is subjected to a predetermined treatment:
Groups 1 and 2 are used in the first experiment (learning) and groups 3 and 4 in the second experiment (mnemic retention).
The differences found are analyzed statistically by the Mann-Whitney method.
Data set [2] can be described thus: multiple-trial passive avoidance: learning. Type of data set: in vivo, male Sprague-Dawley rats. The procedure:
To evaluate whether a compound can promote learning, the following test is carried out. […] Rats which remain on the mat for this period have acquired the avoidance reflex and are replaced in their original cage without receiving the electric shock. […] The results obtained in the test used to evaluate learning are given in columns 3 and 4. […] The results were analyzed by the Student test.

Data set [3] concerns bronchospasm induced by acetylcholine. Briefly: bronchospasmolytic activity (Konzett and Roessler), bronchospasm induced by acetylcholine. Type of data set: in vivo, Dunkin-Hartley guinea-pig. The conditions noted are these: Cavia porcellus; intravenous; acetylcholine-induced bronchospasm; read-out: Doses (ID50), Acetylcholine. The procedure: (§1) This activity was measured in the Dunkin-Hartley guinea-pig by the method of H. KONZETT and […] (Naunyn Schmiedebergs Arch. exp. Path. […] The anesthetized (urethane) and curarized (gallamine) guinea-pig is placed under assisted respiration. The endotracheal pressure is recorded. […] The compound to be tested is also administered intravenously two minutes before the administration of the spasmogen and then in 3 to 4 cumulative doses in increasing amounts at intervals of 15 minutes. Six animals per compound to be tested and per spasmogen are used.

Data set [4] has as its system anaphylactic release of histamine, guinea-pig lung sections. Briefly: inhibition of the anaphylactic release of histamine (proper effect). Type of data set: cell-based, Dunkin-Hartley guinea-pigs. The conditions noted are these: Cavia porcellus, in vitro, read-out: Minimum inhibitory dose (MID). Here is the method:
(§2) Dunkin-Hartley guinea-pigs which are first passively sensitized by an intravenous injection of 1 ml of isologous antiovalbumin serum are used. Twenty-four hours after the injection, the lungs are then perfused with a Tyrode buffer to evacuate the blood, and then removed and cut into sections of 1 mm. These sections are divided up into test tubes (3 sections per tube) to give 10 experimental groups of lung sections per guinea-pig. A "positive" control group of lung sections is stimulated by addition of an ovalbumin solution (0.1 mg/ml) to induce the anaphylactic release of histamine and serves to determine the maximum amount of histamine (100%) which can be released. A "negative" control group which is not stimulated by ovalbumin serves to determine the naturally released amount of histamine (spontaneous release). In three other groups, the lung sections are incubated at 37° C. for 30 minutes in the ovalbumin solution in the presence of three different doses of the compound to be tested (one dose per group). […] At this dose, isoprenaline inhibits the release of histamine by 30 to 40%, which is verified on a control group treated only with isoprenaline alone at this dose. In addition, a supplementary control group which is not stimulated by ovalbumin is used to detect a possible spontaneous release of histamine by the highest dose of the compound tested. In each group, the histamine released in the incubation medium is measured by spectrofluorometry (D. P. EVANS et al., Life Sci., 12, (1973), 327-336).

Data set [5] has as its system bronchospasm induced by serotonin. The data set is described as follows: bronchospasmolytic activity (Konzett and Roessler), bronchospasm induced by serotonin. It is filed as in vivo, Dunkin-Hartley guinea-pig. The conditions noted are these: Cavia porcellus; intravenous; serotonin-induced bronchospasm; read-out: Doses (ID50), Serotonin. The procedure:
as §1

Data set [6] deals with PMN granulocytes. The data set is described as follows: inhibition of the stimulation of PMN granulocytes (chemiluminescence). It is filed as cell-based, Rat. The conditions noted are these: Rattus norvegicus; 10^-6 mole/l; FMLP 3.2×10^-7 mole/liter; read-out: Residual chemiluminescence. The source says: Polymorphonuclear neutrophil granulocytes (PMN) are cells which are mobilized during inflammatory phenomena and which can be stimulated by various compounds, such as, for example, formylmethionyl-leucylphenylalanine (FMLP) or prostaglandins E (PGE1). The PMN granulocytes respond to these extracellular stimuli with an activation of the oxygen metabolism with release of toxic oxygenated metabolites. An excessive response of the PMN granulocytes may be the cause of a painful inflammation and is also accompanied by a reduction in the level of cyclic adenosine monophosphate (cAMP) in these granulocytes. Consequently, compounds which inhibit the respiratory burst of PMN granulocytes or which increase the level of cAMP can be regarded as very important in the treatment of arthritis and asthma. […] Rat PMN granulocytes (5×10^6 /ml) are preincubated in a phosphate buffer ([…], pH 7.4), containing luminol at a concentration of 10^-5 mole per liter, for 15 minutes at 37° C. and then for 5 minutes in the presence of the compound to be treated at a concentration of 10^-6 mole/liter. […] The luminescence which results from the stimulation is measured by means of an LKB 1251 luminometer according to the method of […] and […] (Infection and Immunology, 37, (1982), 34-39). An experimental cycle lasts 38 seconds. The reaction is repeated 9 times for each compound to be tested and the average of the results obtained is calculated.

Data set [7] has as its system bronchospasm induced by histamine. Briefly: bronchospasmolytic activity (Konzett and Roessler), bronchospasm induced by histamine. It is filed as in vivo, Dunkin-Hartley guinea-pig. The conditions noted are these: Cavia porcellus; intravenous; histamine-induced bronchospasm; read-out: Doses (ID50), Histamine. Here is the method:
as §1

The subject of data set [8] is longitudinal muscles of the ileum contracted by histamine. The data set is described as follows: potentiation of the myorelaxing effect of isoprenaline on the ileum. It is filed as cell-based, Dunkin-Hartley guinea-pigs. Particulars: with isoprenaline 10^-7 mole/l; histamine 3.2 μmoles/l. The procedure: (cf. R. A. TURNER, "Screening Methods in Pharmacology", Ed. Acad. Press, San Diego, 1965, chapter IV, pages 43-47). […] Inhibition cycle: When the successive contractions induced by the histamine injections have become reproducible, the compound to be tested is injected immediately after the second wash. The contraction induced by the following injection of histamine is measured and compared with the average of the three preceding contractions caused by the repeated injections of histamine (control contractions). From the result obtained, the percentage inhibition of the contraction is calculated. Several cycles of histamine injection are then performed again, until the contractions of the muscle become reproducible again; the muscle is then ready for testing of another compound. The potentiating effect of a compound is measured in the course of a so-called "potentiation" cycle, which comprises three successive inhibition cycles. […] In the course of the second inhibition cycle, the percentage inhibition of the contraction obtained with the compound to be tested, injected alone at a given dose, is determined. In the third inhibition cycle, isoprenaline and the compound to be tested are injected simultaneously, and the percentage inhibition of the contraction is calculated for the dose used of the compound tested. The same experiments are repeated for each of the doses of the compounds tested.

Data set [9] deals with anaphylactic release of histamine, guinea-pig lung sections. The data set is described as follows: potentiation of the inhibition of anaphylactic histamine release by isoprenaline. It is filed as cell-based, Dunkin-Hartley guinea-pigs. Particulars: with isoprenaline 10^-7 mole per liter. The procedure:
as §2

The nature of data set [10]: toxicity, Irwin's test. It is filed as in vivo. The conditions noted are these: i.p.; death of two animals out of three within 48 hours. Here is the method: Progressive doses of the compound to be tested are administered intraperitoneally to groups of three mice until the lethal dose is reached (dose which causes the death of two animals out of three within 48 hours).

Data set [11] deals with plantar edema induced by immune complexes. Briefly: "reverse passive Arthus" (RPA) test, anti-inflammatory and anti-edema activity. The conditions noted are these: Rattus norvegicus, intravenous. Type of data set: in vivo, Sprague-Dawley rat. Here is the method: The reaction between a soluble antigen and antibodies in the organism may lead to an acute inflammatory reaction accompanied by release of histamine, modification of vascular permeability and formation of a localized edema. […] To this end, the Arthus reaction is induced by subplantar administration of 0.1 ml of heterologous antivalbumin reaginic serum into the right hind paw and by simultaneous intravenous injection of 1 ml/kg ovalbumin (25 mg/ml). The compound to be tested is administered intravenously 30 seconds before induction of the Arthus reaction, in a least 3 different doses. A group of 6 rats is used per dose of compound to be tested. The volume of the paw is measured by plethysmometry before the Arthus reaction and 3 to 5 hours after induction of the Arthus reaction, both in the control animals and in the treated animals. The effect of a compound on the reduction in the edema for each dose and at each measurement time (3 hours and 5 hours) is expressed in % of the edema observed in the control animals. The doses of the compounds (ID30 in μmole/kg) which inhibit by 30%, on average over all the animals, the volume of the edema observed in the control animals are given in Table VII below.

For data set [12], the system named is serotonergic activity. Briefly: "wet dog shake" (WDS) behavior, serotonergic activity. It is filed as in vivo, male Sprague-Dawley rats. The conditions noted are these: 0.94 mg/kg i.p., counted over 30 minutes. Here is the method:
A decrease in serotonergic activity has been correlated with the occurrence of affective disorders, such as depression and anxiety. […] The test is carried out in the morning on male Sprague-Dawley rats (±180 g), divided the previous day into groups of 8 animals in residence cages. The cage used for the tests is a transparent enclosure of 12×24×30 cm in height, the floor of which is covered with a layer of sand. The compounds to be tested, dissolved either in physiological salt solution or in a citrate buffer of pH 5, are administered intraperitoneally in a different dose for each group treated. The control groups receive an intraperitoneal injection of the same vehicle (either physiological salt solution or citrate buffer). […] The mean values of the results are calculated and analyzed statistically by the Mann-Whitney method. The mean values of the number of shakes obtained for the compounds according to the invention administered intraperitoneally at the doses indicated (in mg/kg) are given in Table V below.

Setting [13] is: 3 hours after induction of the Arthus reaction, read-out: Dose (ID30), 3 hours.
The mark [14] stands for this setting: 5 hours after induction of the Arthus reaction, read-out: Dose (ID30), 5 hours.

Molecules are shown by their SMILES. Like-named read-outs stand apart in the source and are kept apart here.

Turning to `CNC(=O)Oc1ccc2c(c1)[C@]1(C)CCN(C)[C@@H]1N2C` [physostigmine, reference compound], the “Period of remaining on the mat, group 4” value in data set [1] (4 hours, 0.4 mg/kg i.p. + 0.5 mg scopolamine) turned out to be 17.8 s; in [1] (24 hours, 0.4 mg/kg i.p. + 0.5 mg scopolamine), 56.2 s; in [1] (28 hours, 0.4 mg/kg i.p. + 0.5 mg scopolamine) it was 53.4 s; in data set [1] (time 0, 0.4 mg/kg i.p. + 0.5 mg scopolamine), 1.9 s. The “side effects / toxicity at the active dose” value in data set [1] (at the dose active against scopolamine amnesia) was “at a dose which has side effects and is very close to the toxic dose”. The “action against the amnesic effect of scopolamine” value in [1] (similar to that of the compounds according to the invention) was “favorable action against the amnesic effect of scopolamine”. Besides, the “Learning, average number of trials, group 2” value in [2] (0.4 mg/kg i.p.) was determined as 2.3 trials.

Turning to `CCc1nc(NC2CC2)nc(N2CC3CCC(C2)O3)n1` [Compound 10], the ED50 came out at 0.5 µmol/kg in data set [3], 0.3 µmol/kg in data set [5] and 0.1 µmol/kg in data set [7]. Moreover, the “Period of remaining on the mat, group 4” value in data set [1] (4 hours, […] i.p. + 0.5 mg scopolamine) was determined as 20.3 s; in [1] (24 hours, […] i.p. + 0.5 mg scopolamine) it was 78.9 s; in data set [1] (28 hours, […] i.p. + 0.5 mg scopolamine), 142.0 s; in data set [1] (time 0, […] i.p. + 0.5 mg scopolamine), 5.7 s. For the same compound, the minimal effective concentration in data set [4] was 3.2 µM. The activity at 1 µM in data set [6] amounted to 56%. The entries for the “Minimum potentiating dose (MPD)” value in [8] and in data set [9] were 1.0 µmol/L and 0.32 µmol/L, respectively. Moreover, the Lethal dose in data set [10] was 311.8 mg/kg.

Consider `Cc1nc(NC2CC2)nc(N2CC3CCC(C2)O3)n1.Cl` [Compound 9, 2-Cyclopropylamino-4-methyl-6-(8-oxa-3-azabicyclo[3,2,1]oct-3-yl)-1,3,5-triazine hydrochloride], for which the ED50 came out at 2.1 µmol/kg in data set [3], 1 µmol/kg in data set [5] and 0.4 µmol/kg in [7]. Moreover, the “Period of remaining on the mat, group 4” value in data set [1] (4 hours, 3.0 mg/kg i.p. + 0.5 mg scopolamine) is 17.3 s; in data set [1] (24 hours, 3.0 mg/kg i.p. + 0.5 mg scopolamine), 38.1 s; in data set [1] (28 hours, 3.0 mg/kg i.p. + 0.5 mg scopolamine), 65.2 s; in data set [1] (time 0, 3.0 mg/kg i.p. + 0.5 mg scopolamine), 3.6 s. Besides, in data set [4], the minimal effective concentration was 3.2 µM. The “Learning, average number of trials, group 2” value in [2] (3.0 mg/kg i.p.) is listed as 2.9 trials. Moreover, the activity at 1 µM in data set [6] came to 82%. The “Minimum potentiating dose (MPD)” value was 10.0 µmol/L in data set [8] and 3.2 µmol/L in [9]. In addition, the ED30 stood at 3.4 µmol/kg in data set [11] (setting [13]) and 4.4 µmol/kg in [11] (setting [14]). The Lethal dose in [10] worked out at 297.8 mg/kg.

With `[O-][S+]1CCN(c2nc(NC3CC3)nc(C3CC3)n2)CC1` [Compound 19, 2-Cyclopropyl-4-cyclopropylamino-6-thiomorpholino-1,3,5-triazine S-oxide], the ED50 in [3] was determined as 0.1 µmol/kg; in [5] it was 0.04 µmol/kg; in data set [7] it was 0.02 µmol/kg. In addition, the “Average number of shakes” value in data set [12] came out at 16.0 ± 4.7 shakes. Besides, the minimal effective concentration in data set [4] is 1 µM. The “Minimum potentiating dose (MPD)” value in data set [8] stood at 0.32 µmol/L; in [9] it was 0.1 µmol/L. The ED30 in [11] (setting [13]) and in [11] (setting [14]) was 0.02 µmol/kg throughout. The compound also yielded a Lethal dose in data set [10] of 175.6 mg/kg.
